The source of these data is patent publication US20240166660A1, “KRAS G12C INHIBITORS” (BeiGene Switzerland GmbH, priority 2021, published 2024).

This assay concerns the target KRAS (aa 1-169) G12C, C51S, C80L, C118S (Homo sapiens (Human), UniProt P01116, C118S/C51S/C80L/G12C). The experiment in a line: Biochemical functional assay: SOS1-mediated nucleotide exchange of GDP-loaded KRAS G12C, binding to GST-cRaf RBD, FRET readout. The conditions noted are these: 3 hrs pre-incubation with compound at 24° C., SOS1, GTPyS, inhibition of nucleotide exchange. The method in brief:
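GDP-loaded His-tagged KRAS construct preincubated with compound 3 h at 24° C in 25 mM HEPES pH7.5, 10 mM MgCl2, 0.01% Triton X-100; SOS1 (aa 564-1049), GTPγS and GST-cRaf RBD added for 3 h, then anti-His Tb cryptate/anti-GST XL665 for 3 h. HTRF 665/620 ratio; IC50 by four-parameter logistic fit.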

Chain of KRAS (aa 1-169) G12C, C51S, C80L, C118S (P01116 other isoform, or with tags, fused parts or gaps G12C/C51S/C80L/C118S): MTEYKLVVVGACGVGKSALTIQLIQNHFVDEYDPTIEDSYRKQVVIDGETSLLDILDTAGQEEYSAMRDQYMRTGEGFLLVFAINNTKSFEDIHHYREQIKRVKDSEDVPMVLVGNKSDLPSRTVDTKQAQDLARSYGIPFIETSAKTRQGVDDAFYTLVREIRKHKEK

Consider `C=C(F)C(=O)N1CCN(c2nc(OC[C@@H]3CCCN3C)nc3cc(-c4c(O)cccc4F)c4ccoc4c23)C[C@@H]1CC#N` [Compound B39, 2-((2S)-4-(4-(2-fluoro-6-hydroxyphenyl)-7-(((S)-1-methylpyrrolidin-2-yl)methoxy)furo[2,3-f]quinazolin-9-yl)-1-(2-fluoroacryloyl)piperazin-2-yl)acetonitrile], for which the IC50 was determined as 1040 nM.
For the compound `C=C(F)C(=O)N1CCN(c2nc(OC[C@@H]3CCCN3C)nc3cc(-c4ccccc4C(F)(F)F)c4ccoc4c23)C[C@@H]1CC#N` [Compound B40, 2-((S)-1-(2-fluoroacryloyl)-4-(7-(((S)-1-methylpyrrolidin-2-yl)methoxy)-4-(2-(trifluoromethyl)phenyl)furo[2,3-f]quinazolin-9-yl)piperazin-2-yl)acetonitrile], the half-inhibitory concentration (IC50) is 14 nM.
`C=C(F)C(=O)N1CCN(c2nc(OC[C@@H]3CCCN3C)nc3cc(-c4cccc5cccc(Cl)c45)c4ccoc4c23)C[C@@H]1CC#N` [Compound B41, 2-((S)-4-(4-(8-chloronaphthalen-1-yl)-7-(((S)-1-methylpyrrolidin-2-yl)methoxy)furo[2,3-f]quinazolin-9-yl)-1-(2-fluoroacryloyl)piperazin-2-yl)acetonitrile]: the IC50 came to 3.8 nM.
In the case of `C=C(F)C(=O)N1CCN(c2nc(OC[C@@H]3CCCN3C)nc3cc(-c4c(F)c(Cl)cc5[nH]ncc45)c4c(c23)OCCC4)C[C@@H]1CC#N` [Compound B42, 2-((2S)-4-(5-(6-chloro-5-fluoro-1H-indazol-4-yl)-8-(((S)-1-methylpyrrolidin-2-yl)methoxy)-3,4-dihydro-2H-pyrano[2,3-f]quinazolin-10-yl)-1-(2-fluoroacryloyl)piperazin-2-yl)acetonitrile], the IC50 was 43 nM.
As for `C=C(F)C(=O)N1CCN(c2nc(OC[C@@H]3CCCN3C)nc3cc(-c4cccc5cccc(C)c45)c4c(c23)OCCC4)C[C@@H]1CC#N` [Compound B43, 2-((S)-1-(2-fluoroacryloyl)-4-(5-(8-methylnaphthalen-1-yl)-8-(((S)-1-methylpyrrolidin-2-yl)methoxy)-3,4-dihydro-2H-pyrano[2,3-f]quinazolin-10-yl)piperazin-2-yl)acetonitrile], the 50% inhibitory concentration (IC50) is 13 nM.
Take `C=C(F)C(=O)N1CCN(c2nc(OC[C@@H]3CCCN3C)nc3cc(-c4ccccc4F)c4ccoc4c23)CC1` [Compound B44, (S)-2-fluoro-1-(4-(4-(2-fluorophenyl)-7-((1-methylpyrrolidin-2-yl)methoxy)furo[2,3-f]quinazolin-9-yl)piperazin-1-yl)prop-2-en-1-one]: the IC50 was determined as 6350 nM.
For `C=CC(=O)N1CCN(c2nc(OC[C@@H]3CCCN3C)nc3cc(-c4ccccc4F)c4ccoc4c23)CC1` [Compound B45, (S)-1-(4-(4-(2-fluorophenyl)-7-((1-methylpyrrolidin-2-yl)methoxy)furo[2,3-f]quinazolin-9-yl)piperazin-1-yl)prop-2-en-1-one] the value was 2020 nM; for `C=CC(=O)N1CCN(c2nc(OC[C@@H]3CCCN3C)nc3cc(-c4c(O)cccc4F)c4ccoc4c23)CC1` [Compound B46, 1-(4-(4-(2-fluoro-6-hydroxyphenyl)-7-(((S)-1-methylpyrrolidin-2-yl)methoxy)furo[2,3-f]quinazolin-9-yl)piperazin-1-yl)prop-2-en-1-one], 621 nM; for `C=CC(=O)N1CCN(c2nc(OC3CCCC3N(C)C)nc3cc(-c4cccc5cccc(Cl)c45)c4c(c23)OCCC4)C[C@@H]1CC#N` (stereo partly drawn) [Compound B48, 2-((2S)-1-acryloyl-4-(5-(8-chloronaphthalen-1-yl)-8-((2-(dimethylamino)cyclopentyl)oxy)-3,4-dihydro-2H-pyrano[2,3-f]quinazolin-10-yl)piperazin-2-yl)acetonitrile], 14 nM.
For `C=CC(=O)N1CCN(c2nc(OC[C@@H]3CCCN3C)nc3cc(-c4cccc5cccc(Cl)c45)c4ccoc4c23)[C@@H](C)C1` [Compound B49, 1-((S)-4-(4-(8-chloronaphthalen-1-yl)-7-(((S)-1-methylpyrrolidin-2-yl)methoxy)furo[2,3-f]quinazolin-9-yl)-3-methylpiperazin-1-yl)prop-2-en-1-one], the half-inhibitory concentration (IC50) came out at 128 nM.
Take `C=C(F)C(=O)N1CCN(c2nc(OC3CCCC3N(C)C)nc3cc(-c4cccc5cccc(Cl)c45)c4c(c23)OCCC4)C[C@@H]1CC#N` (stereo partly drawn) [Compound B50, 2-((2S)-4-(5-(8-chloronaphthalen-1-yl)-8-((2-(dimethylamino)cyclopentyl)oxy)-3,4-dihydro-2H-pyrano[2,3-f]quinazolin-10-yl)-1-(2-fluoroacryloyl)piperazin-2-yl)acetonitrile]: the IC50 was determined as 289 nM.
In the case of `C=CC(=O)N1CC2(CCN(c3nc(OC[C@@H]4CCCN4C)nc4cc(-c5cccc6cccc(Cl)c56)c5ccoc5c34)CC2)C1` [Compound B51, (S)-1-(7-(4-(8-chloronaphthalen-1-yl)-7-((1-methylpyrrolidin-2-yl)methoxy)furo[2,3-f]quinazolin-9-yl)-2,7-diazaspiro[3.5]nonan-2-yl)prop-2-en-1-one], the IC50 stood at 1010 nM.
For `C=CC(=O)N1C[C@H](C)N(c2nc(OC[C@@H]3CCCN3C)nc3cc(-c4cccc5cccc(Cl)c45)c4ccoc4c23)C[C@H]1C` [Compound B52, 1-((2R,5S)-4-(4-(8-chloronaphthalen-1-yl)-7-(((S)-1-methylpyrrolidin-2-yl)methoxy)furo[2,3-f]quinazolin-9-yl)-2,5-dimethylpiperazin-1-yl)prop-2-en-1-one], the IC50 amounted to 654 nM.
Turning to `C=C(F)C(=O)N1CCN(c2nc(OC[C@@H]3C[C@@H](F)CN3C)nc3cc(-c4cccc5cccc(Cl)c45)c4c(c23)OCCC4)C[C@@H]1CC#N` [Compound B53, 2-((S)-4-(5-(8-chloronaphthalen-1-yl)-8-(((2S,4R)-4-fluoro-1-methylpyrrolidin-2-yl)methoxy)-3,4-dihydro-2H-pyrano[2,3-f]quinazolin-10-yl)-1-(2-fluoroacryloyl)piperazin-2-yl)acetonitrile], the IC50 was found to be 28 nM.
Regarding `C=C(F)C(=O)N1CCN(c2nc(OC[C@@H]3C[C@H](F)CN3C)nc3cc(-c4cccc5cccc(Cl)c45)c4c(c23)OCCC4)C[C@@H]1CC#N` [Compound B54, 2-((S)-4-(5-(8-chloronaphthalen-1-yl)-8-(((2S,4S)-4-fluoro-1-methylpyrrolidin-2-yl)methoxy)-3,4-dihydro-2H-pyrano[2,3-f]quinazolin-10-yl)-1-(2-fluoroacryloyl)piperazin-2-yl)acetonitrile], the IC50 stood at 40 nM.
As for `C=C(F)C(=O)N1CCN(c2nc(O[C@@H]3CN(C)C[C@H]3OC)nc3cc(-c4cccc5cccc(Cl)c45)c4c(c23)OCCC4)C[C@@H]1CC#N` [Compound B55, 2-((S)-4-(5-(8-chloronaphthalen-1-yl)-8-(((3R,4R)-4-methoxy-1-methylpyrrolidin-3-yl)oxy)-3,4-dihydro-2H-pyrano[2,3-f]quinazolin-10-yl)-1-(2-fluoroacryloyl)piperazin-2-yl)acetonitrile], the IC50 came out at 134 nM.
Turning to `C=CC(=O)N1CCN(c2nc(OC[C@@H]3CCCN3C)nc3cc(-c4c(C)cccc4C)c4ccoc4c23)CC1` [Compound B56, (S)-1-(4-(4-(2,6-dimethylphenyl)-7-((1-methylpyrrolidin-2-yl)methoxy)furo[2,3-f]quinazolin-9-yl)piperazin-1-yl)prop-2-en-1-one], the IC50 amounted to 632 nM.
